This note sets out measurements from paper PMC3685283 (Molecular cancer research : MCR, 2012).

In assay [1] the target is Smoothened (SMO) (Homo sapiens, UniProt Q99835). Kind of assay: BODIPY-cyclopamine competition binding in SMO-transfected HeLa cells. It counts as cell-based.
Assay [2] deals with Smoothened (SMO) (Mus musculus, UniProt P56726). The description is as above. It counts as cell-based.
Smoothened (SMO) (Mus musculus, UniProt P56726), sequence (P56726 33-793): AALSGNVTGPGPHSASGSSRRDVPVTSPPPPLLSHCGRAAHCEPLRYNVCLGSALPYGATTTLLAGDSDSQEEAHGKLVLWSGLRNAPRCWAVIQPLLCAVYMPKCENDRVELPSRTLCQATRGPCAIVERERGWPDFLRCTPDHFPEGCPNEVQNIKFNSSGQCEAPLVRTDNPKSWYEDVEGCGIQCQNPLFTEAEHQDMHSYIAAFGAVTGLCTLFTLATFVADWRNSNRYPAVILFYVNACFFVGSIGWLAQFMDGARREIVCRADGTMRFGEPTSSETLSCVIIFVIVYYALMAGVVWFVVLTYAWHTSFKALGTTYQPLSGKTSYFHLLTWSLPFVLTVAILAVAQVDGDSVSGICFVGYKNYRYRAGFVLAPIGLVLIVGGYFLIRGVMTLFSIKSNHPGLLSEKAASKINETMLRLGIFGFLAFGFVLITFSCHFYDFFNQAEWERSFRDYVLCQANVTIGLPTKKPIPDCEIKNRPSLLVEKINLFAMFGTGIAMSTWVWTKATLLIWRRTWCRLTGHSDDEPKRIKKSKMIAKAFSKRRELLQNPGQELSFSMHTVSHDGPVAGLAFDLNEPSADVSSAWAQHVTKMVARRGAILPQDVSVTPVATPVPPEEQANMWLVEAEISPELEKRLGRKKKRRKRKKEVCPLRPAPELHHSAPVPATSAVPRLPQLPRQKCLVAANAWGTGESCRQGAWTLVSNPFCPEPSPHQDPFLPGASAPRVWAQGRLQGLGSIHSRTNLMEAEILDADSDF

Smoothened (SMO) (Homo sapiens, UniProt Q99835), sequence (Q99835 28-787): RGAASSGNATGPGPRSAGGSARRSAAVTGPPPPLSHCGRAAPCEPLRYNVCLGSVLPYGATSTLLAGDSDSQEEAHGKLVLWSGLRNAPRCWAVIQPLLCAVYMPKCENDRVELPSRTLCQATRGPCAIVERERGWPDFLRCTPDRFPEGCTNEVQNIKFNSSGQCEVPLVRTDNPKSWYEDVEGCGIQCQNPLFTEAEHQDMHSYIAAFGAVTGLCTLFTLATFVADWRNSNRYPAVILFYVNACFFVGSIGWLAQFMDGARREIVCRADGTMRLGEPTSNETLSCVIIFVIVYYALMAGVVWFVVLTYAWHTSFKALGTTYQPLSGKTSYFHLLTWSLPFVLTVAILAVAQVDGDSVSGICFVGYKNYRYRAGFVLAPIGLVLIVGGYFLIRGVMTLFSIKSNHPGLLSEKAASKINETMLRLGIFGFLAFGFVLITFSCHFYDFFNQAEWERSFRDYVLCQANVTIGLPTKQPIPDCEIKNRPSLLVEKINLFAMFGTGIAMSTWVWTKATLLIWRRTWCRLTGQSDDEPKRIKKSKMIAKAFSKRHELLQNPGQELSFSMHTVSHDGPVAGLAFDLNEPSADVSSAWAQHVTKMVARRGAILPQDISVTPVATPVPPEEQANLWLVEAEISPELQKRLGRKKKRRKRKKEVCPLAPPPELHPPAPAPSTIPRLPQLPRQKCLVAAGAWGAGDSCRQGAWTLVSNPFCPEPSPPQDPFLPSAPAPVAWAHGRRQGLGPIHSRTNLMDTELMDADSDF

The term Kd denotes the equilibrium constant for the complex coming apart. For the compound `CC1=C2C[C@H]3[C@@H](CC=C4CC(=O)CC[C@@]43C)[C@@H]2CC[C@]12O[C@@H]1C[C@H](C)CN(CCNC(=O)CCCCCNC(=O)CCc3ccccc3)[C@H]1[C@H]2C` [KAAD-cyclopamine], the Kd on Smoothened (SMO) [1] amounted to 0.8 nM; on Smoothened (SMO) [2], 2 nM.
